Measurements as given in patent publication US10106504B2, “Pyridin-3-yl acetic acid derivatives as inhibitors of human immunodeficiency virus replication” (priority 2015, dated 2018).
Where two headings read alike, the source gives them in different places.

Tested on: NL-RLuc virus
Assay: Inhibition of HIV replication (NL-RLuc virus, luciferase readout in MT-2 cells)
Type: cell-based
Conditions: Human immunodeficiency virus 1, MT2, 120 h
Source text: Inhibition of HIV Replication:
A recombinant NL-RLuc proviral clone was constructed in which a section of the nef gene from NL4-3 was replaced with the Renilla Luciferase gene. This virus is fully infectious and can undergo multiple cycles of replication in cell culture. In addition, the luciferous reporter provides a simple and easy method for quantitating the extent of virus growth and consequently, the antiviral activity of test compounds. The plasmid pNLRLuc contains the proviral NL-Rluc DNA cloned into pUC18 at the PvuII site. The NL-RLuc virus was prepared by transfection of 293T cells with the plasmid pNLRLuc. Transfections were performed using the LipofectAMINE PLUS kit from Invitrogen (Carlsbad, Calif.) according to the manufacturer and the virus generated was titered in MT-2 cells. For susceptibility analyses, the titrated virus was used to infect MT-2 cells in the presence of compound, and after 5 days of incubation, cells were processed and quantitated for virus growth by the amount of expressed luciferase. Assay media was RPMI 1640 supplemented with 10% heat inactivated fetal bovine serum (FBS), 100 units/ml penicillin G/100 units/ml streptomycin, 10 mM HEPES buffer pH 7.55 and 2 mM L-glutamine. The results from at least 2 experiments were used to calculate the EC50 values. Luciferase was quantitated using the Dual Luciferase kit from Promega (Madison, Wis.). Susceptibility of viruses to compounds was determined by incubation in the presence of serial dilutions of the compound. The 50% effective concentration (EC50) was calculated by using the exponential form of the median effect equation where (Fa)=1/[1+(ED50/drug conc.)^m] (Johnson V A, Byington R T. Infectivity Assay. In Techniques in HIV Research. ed. Aldovini A, Walker BD. 71-76. New York: Stockton Press. 1990). Activity equal to A refers to a compound having an EC50<100 nM, while B and C denote compounds having an EC50 between 100 nM and 1 uM (B) or >1 uM (C).

Structure (SMILES) | EC50 (read-out: Activity) | EC50 (read-out: EC50 μM)
Cc1cccc(CN2CCc3cc(-c4c(C)nc(C)c([C@H](OC(C)(C)C)C(=O)O)c4-c4ccc5c(c4)CCCO5)ccc3C2)c1F [Example 26, (S)-2-(tert-Butoxy)-2-(4-(chroman-6-yl)-5-(2-(2-fluoro-3-methylbenzyl)-1,2,3,4-tetrahydroisoquinolin-6-yl)-2,6-dimethylpyridin-3-yl)acetic Acid] | < 0.1 µM | 
Cc1cc(N2CCc3cc(-c4c(C)nc(C)c([C@H](OC(C)(C)C)C(=O)O)c4-c4ccc5c(c4)CCCO5)ccc3C2)nc(C)n1 [Example 58, (S)-2-(tert-Butoxy)-2-(4-(chroman-6-yl)-5-(2-(2,6-dimethylpyrimidin-4-yl)-1,2,3,4-tetrahydroisoquinolin-6-yl)-2,6-dimethylpyridin-3-yl)acetic Acid] | < 0.1 µM | 
Cc1nc(C)c([C@H](OC(C)(C)C)C(=O)O)c(-c2ccc(OCCc3ccc(F)cc3)cc2)c1-c1ccc(OCCc2ccc(F)cc2)cc1 [Example 8, (S)-2-(4,5-Bis(4-(4-fluorophenethoxy)phenyl)-2,6-dimethylpyridin-3-yl)-2-(tert-butoxy)acetic Acid] | 0.1 to 1 µM | 
Cc1nc(C)c([C@H](OC(C)(C)C)C(=O)O)c(-c2cc(F)c3c(c2C)CCCO3)c1-c1cc(F)c2c(c1C)CCCO2 [Example 1, (2S)-2-(4,5-Bis(8-fluoro-5-methylchroman-6-yl)-2,6-dimethylpyridin-3-yl)-2-(tert-butoxy)acetic Acid] | > 1 µM | 1.74 µM
Cc1nc(COCC2COC2)c(-c2ccc(OCCc3ccc(F)cc3)cc2)c(-c2ccc3c(c2)CCCO3)c1[C@H](OC(C)(C)C)C(=O)O [Example 16, (S)-2-(tert-Butoxy)-2-(4-(chroman-6-yl)-5-(4-(4-fluorophenethoxy)phenyl)-2-methyl-6-((oxetan-3-ylmethoxy)methyl)pyridin-3-yl)acetic Acid] | < 0.1 µM | 
Cc1nc(C)c([C@H](OC(C)(C)C)C(=O)O)c(-c2ccc3c(c2)CCCO3)c1-c1ccc(OCCc2ccc(F)cc2)cc1 [Example 9, (S)-2-(tert-Butoxy)-2-(4-(chroman-6-yl)-5-(4-(4-fluorophenethoxy)phenyl)-2,6-dimethylpyridin-3-yl)acetic Acid] | < 0.1 µM | 
Cc1nc(CN(C)CC2CCOCC2)c(-c2ccc(OCCc3ccc(F)cc3)cc2)c(-c2ccc3c(c2)CCCO3)c1[C@H](OC(C)(C)C)C(=O)O [Example 13, (S)-2-(tert-Butoxy)-2-(4-(chroman-6-yl)-5-(4-(4-fluorophenethoxy)phenyl)-2-methyl-6-((methyl((tetrahydro-2H-pyran-4-yl)methyl)amino)methyl)pyridin-3-yl)acetic Acid] | < 0.1 µM | 
Cc1nc(C)c([C@H](OC(C)(C)C)C(=O)O)c(-c2cc(F)c3c(c2C)CCCO3)c1-c1ccc(OCCc2ccc(F)cc2)cc1 [Example 6, (2S)-2-(tert-Butoxy)-2-(4-(8-fluoro-5-methylchroman-6-yl)-5-(4-(4-fluorophenethoxy)phenyl)-2,6-dimethylpyridin-3-yl)acetic Acid] | < 0.1 µM | 
Cc1nc(CCCC2CCOCC2)c(-c2ccc(OCCc3ccc(F)cc3)cc2)c(-c2ccc3c(c2)CCCO3)c1[C@H](OC(C)(C)C)C(=O)O [Example 66, (S)-2-(tert-Butoxy)-2-(4-(chroman-6-yl)-5-(4-(4-fluorophenethoxy)phenyl)-2-methyl-6-(3-(tetrahydro-2H-pyran-4-yl)propyl)pyridin-3-yl)acetic Acid] | < 0.1 µM | 0.006 µM
Cc1ccc(-c2c(-c3ccc(OCc4ccc(F)cc4)cc3)c(C)nc(C)c2[C@H](OC(C)(C)C)C(=O)O)cc1 [Example 5, (S)-2-(tert-Butoxy)-2-(5-(4-((4-fluorobenzyl)oxy)phenyl)-2,6-dimethyl-4-(p-tolyl)pyridin-3-yl)acetic Acid] | 0.1 to 1 µM | 
Cc1nc(C)c([C@H](OC(C)(C)C)C(=O)O)c(-c2ccc3c(c2)CCCO3)c1-c1ccc2c(c1)CCN(C)C2 [Example 22, (S)-2-(tert-Butoxy)-2-(4-(chroman-6-yl)-2,6-dimethyl-5-(2-methyl-1,2,3,4-tetrahydroisoquinolin-6-yl)pyridin-3-yl)acetic acid] | 0.1 to 1 µM | 0.628 µM
Cc1cccc(F)c1CN1CCc2cc(-c3c(N)nc(C)c([C@H](OC(C)(C)C)C(=O)O)c3-c3ccc4c(c3)CCCO4)ccc2C1 [Example 62, (S)-2-(6-Amino-4-(chroman-6-yl)-5-(2-(2-fluoro-6-methylbenzyl)-1,2,3,4-tetrahydroisoquinolin-6-yl)-2-methylpyridin-3-yl)-2-(tert-butoxy)acetic Acid] | < 0.1 µM | 
Cc1nc(C)c([C@H](OC(C)(C)C)C(=O)O)c(-c2ccc3c(c2)CCCO3)c1-c1ccc2c(c1)CCN(c1ncnc3c1cnn3C)C2 [Example 54, (S)-2-(tert-Butoxy)-2-(4-(chroman-6-yl)-2,6-dimethyl-5-(2-(1-methyl-1H-pyrazolo[3,4-d]pyrimidin-4-yl)-1,2,3,4-tetrahydroisoquinolin-6-yl)pyridin-3-yl)acetic Acid] | < 0.1 µM | 0.008 µM
COc1ccc(COc2ccc(-c3c(C)nc(C)c([C@H](OC(C)(C)C)C(=O)O)c3-c3ccc(OCc4ccc(OC)cc4)cc3)cc2)cc1 [Example 4, (S)-2-(4,5-Bis(4-((4-methoxybenzyl)oxy)phenyl)-2,6-dimethylpyridin-3-yl)-2-(tert-butoxy)acetic Acid] | 0.1 to 1 µM | 
Cc1nc(COC2CCOCC2)c(-c2ccc(OCCc3ccc(F)cc3)cc2)c(-c2ccc3c(c2)CCCO3)c1[C@H](OC(C)(C)C)C(=O)O [Example 15, (S)-2-(tert-Butoxy)-2-(4-(chroman-6-yl)-5-(4-(4-fluorophenethoxy)phenyl)-2-methyl-6-(((tetrahydro-2H-pyran-4-yl)oxy)methyl)pyridin-3-yl)acetic Acid] | < 0.1 µM | 
Cc1nc(C)c([C@H](OC(C)(C)C)C(=O)O)c(-c2cc(F)c3c(c2)C=CCO3)c1-c1ccc(OCCc2ccc(F)cc2)cc1 [Example 47, (S)-2-(tert-Butoxy)-2-(4-(8-fluoro-2H-chromen-6-yl)-5-(4-(4-fluorophenethoxy)phenyl)-2,6-dimethylpyridin-3-yl)acetic Acid] | < 0.1 µM | 
Cc1nc(C)c([C@H](OC(C)(C)C)C(=O)O)c(-c2ccc3c(c2)CCCO3)c1-c1ccc2c(c1)CCN(Cc1ccc(F)cc1)C2 [Example 20, (S)-2-(tert-Butoxy)-2-(4-(chroman-6-yl)-5-(2-(4-fluorobenzyl)-1,2,3,4-tetrahydroisoquinolin-6-yl)-2,6-dimethylpyridin-3-yl)acetic Acid] | < 0.1 µM | 
Cc1nc(N)c(-c2ccc3c(c2)CCN(Cc2cccc(F)c2C)C3)c(-c2ccc3c(c2)CCCO3)c1[C@H](OC(C)(C)C)C(=O)O [Example 61, (S)-2-(6-Amino-4-(chroman-6-yl)-5-(2-(3-fluoro-2-methylbenzyl)-1,2,3,4-tetrahydroisoquinolin-6-yl)-2-methylpyridin-3-yl)-2-(tert-butoxy)acetic acid] | < 0.1 µM | 
COCCNCc1nc(C)c([C@H](OC(C)(C)C)C(=O)O)c(-c2ccc3c(c2)CCCO3)c1-c1ccc(OCCc2ccc(F)cc2)cc1 [Example 12, (S)-2-(tert-Butoxy)-2-(4-(chroman-6-yl)-5-(4-(4-fluorophenethoxy)phenyl)-6-(((2-methoxyethyl)amino)methyl)-2-methylpyridin-3-yl)acetic Acid] | < 0.1 µM | 0.007 µM
Cc1nc(CO)c(-c2ccc(OCCc3ccc(F)cc3)cc2)c(-c2ccc3c(c2)CCCO3)c1[C@H](OC(C)(C)C)C(=O)O [Example 14, (S)-2-(tert-Butoxy)-2-(4-(chroman-6-yl)-5-(4-(4-fluorophenethoxy)phenyl)-6-(hydroxymethyl)-2-methylpyridin-3-yl)acetic Acid] | < 0.1 µM | 
Cc1nc(C)c([C@H](OC(C)(C)C)C(=O)O)c(-c2ccc3c(c2)CCCO3)c1-c1ccc2c(c1)CCN(Cc1cccc(F)c1)C2 [Example 24, (S)-2-(tert-Butoxy)-2-(4-(chroman-6-yl)-5-(2-(3-fluorobenzyl)-1,2,3,4-tetrahydroisoquinolin-6-yl)-2,6-dimethylpyridin-3-yl)acetic Acid] | < 0.1 µM | 
Cc1cccc(F)c1CN1CCc2cc(-c3c(C)nc(C)c([C@H](OC(C)(C)C)C(=O)O)c3-c3cc(F)c4c(c3)CCCO4)ccc2C1 [Example 49, (S)-2-(tert-Butoxy)-2-(5-(2-(2-fluoro-6-methylbenzyl)-1,2,3,4-tetrahydroisoquinolin-6-yl)-4-(8-fluorochroman-6-yl)-2,6-dimethylpyridin-3-yl)acetic Acid] | < 0.1 µM | 
Cc1cccc(F)c1CN1CCc2cc(-c3c(C)nc(C)c([C@H](OC(C)(C)C)C(=O)O)c3-c3cc(F)c4c(c3C)CCCO4)ccc2C1 [Example 39, (2S)-2-(tert-Butoxy)-2-(4-(8-fluoro-5-methylchroman-6-yl)-5-(2-(2-fluoro-6-methylbenzyl)-1,2,3,4-tetrahydroisoquinolin-6-yl)-2,6-dimethylpyridin-3-yl)acetic Acid] | < 0.1 µM | 0.024 µM
